Patent US12495798B2, “Nicotinamide compound and herbicidal composition comprising compound” (KOREA RESEARCH INSTITUTE OF CHEMICAL TECHNOLOGY, priority 2019, dated 2025)

What was measured:
Format in all cases: in vivo
[1] = tested on: crabgrass; test: Herbicidal activity test against upland field weeds (foliar treatment test); parameters: key to Foliar treatment herbicidal activity, Crabgrass: 0 (no control); 100 (complete control); settings: 50 g ai/ha, scale 0-100; for pest or weed control at 50 g/ha: Digitaria sanguinalis
Method in brief: (§1)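 Weeds were raised from seed or rootstocks in horticultural soil in a greenhouse (30±5° C., 14/10 h light/dark), then foliage was hand-sprayed with compound at 50 or 75 g a.i./ha in 50% acetone with 0.1% Tween-20. Control was scored visually 0–100 against untreated plants after 14 days, or 21 if needed.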

[2] = tested on: bindweed; test: as above; parameters: key to Foliar treatment herbicidal activity, Bindweed: 0 (no control); 100 (complete control); settings: 50 g ai/ha, scale 0-100
Method in brief: as §1

[3] = tested on: cocklebur; test: Herbicidal activity test against upland field weeds (soil treatment test); parameters: key to Soil treatment herbicidal activity, Cocklebur: 0 (no control); 100 (complete control); settings: 50 g ai/ha, scale 0 (no control) to 100 (complete control)
Method in brief: (§2)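 Pre-emergence test: seeds or rootstocks were sown in fertilized sandy loam, and the next day the soil surface was sprayed with compound at 50 or 75 g a.i./ha in 50% acetone/0.1% Tween-20. Plants were grown in a greenhouse (30±5 °C, 14/10 h light/dark), then visually scored 0–100 against untreated at 14 d (21 d if needed).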

[4] = tested on: sorghum; test: as above; parameters: key to Soil treatment herbicidal activity, Sorghum: 0 (no control); 100 (complete control); settings: 50 g ai/ha, scale 0 (no control) to 100 (complete control); for plant injury at 50 g/ha: Sorghum
Method in brief: as §2

[5] = tested on: sorghum; test: Herbicidal activity test against upland field weeds (foliar treatment test); parameters: key to Foliar treatment herbicidal activity, Sorghum: 0 (no control); 100 (complete control); settings: 50 g ai/ha, scale 0-100; for plant injury at 50 g/ha: Sorghum
Method in brief: as §1

[6] = tested on: quack grass; test: as above; parameters: key to Foliar treatment herbicidal activity, quack grass: 0 (no control); 100 (complete control); settings: 50 g ai/ha, scale 0-100
Method in brief: as §1

[7] = tested on: crabgrass; test: Herbicidal activity test against upland field weeds (soil treatment test); parameters: key to Soil treatment herbicidal activity, Crabgrass: 0 (no control); 100 (complete control); settings: 50 g ai/ha, scale 0 (no control) to 100 (complete control)
Method in brief: as §2

[8] = tested on: fall panicum; test: as above; parameters: key to Soil treatment herbicidal activity, Fall panicum: 0 (no control); 100 (complete control); settings: 50 g ai/ha, scale 0 (no control) to 100 (complete control)
Method in brief: as §2

[9] = tested on: indian jointvetch; test: as above; parameters: key to Soil treatment herbicidal activity, Indian jointvetch: 0 (no control); 100 (complete control); settings: 50 g ai/ha, scale 0 (no control) to 100 (complete control)
Method in brief: as §2

[10] = tested on: soybean; test: Phytotoxicity test for field crops (soil treatment test); parameters: key: 0 (no harm); 9 (complete withered)
Method: (§3) Experimental Example 4: Phytotoxicity Test for Field Crops (Soil Treatment Test)
(§4) Soil treatment was performed for sown crops and weeds in a square plastic pot having a surface area of 50 cm^2 filled with sterilized horticultural soil (pH 6.1, organic material 1.0%, clay 21%, silt 17%, sand 52%). As a fertilizer per pot, 0.5 g of horticultural mixed fertilizer (N:P:K=17:21:17) was treated by mixing with soil. Five kinds of crops such as rice, wheat, corn, soybean, and cotton were sown in each pot. One day after sowing, test compound solutions were made by diluting with the diluent (33% acetone, 0.1% Tween-20) so that the final treatment amount of the test compounds was 19˜300 g a.i./ha. The prepared test compound solutions were treated using a spray booth (SB6-016) at a treatment amount of 100 ml per 1 m^2 of treatment area. The treated crops were managed in greenhouse conditions (average temperature 30±5° C., light/dark=14/10 hours). External symptoms and phytotoxicity were visually investigated 10 and 20 days after treatment. In the evaluation of the phytotoxicity for the crop, the grade of 0 (no harm) to 9 (complete withered) was used. The results of Table 10 were obtained by evaluating phytotoxicity value to the untreated control.

[11] = tested on: corn; test: as above; parameters: key: 0 (no harm); 9 (complete withered)
Method: as §3, §4

[12] = tested on: rice; test: as above; parameters: key: 0 (no harm); 9 (complete withered)
Method: as §3, §4

[13] = tested on: wheat; test: as above; parameters: key: 0 (no harm); 9 (complete withered)
Method: as §3, §4

[14] = tested on: cotton; test: as above; parameters: key: 0 (no harm); 9 (complete withered)
Method: as §3, §4

[15] = 50 g ai/ha, Soybean (20 days after treatment)
[16] = 100 g ai/ha, Soybean (20 days after treatment)
[17] = 50 g ai/ha, Corn (10 days after treatment)
[18] = 50 g ai/ha, Corn (20 days after treatment)
[19] = 100 g ai/ha, Corn (10 days after treatment)
[20] = 100 g ai/ha, Corn (20 days after treatment)
[21] = 50 g ai/ha, Rice (10 days after treatment)
[22] = 50 g ai/ha, Rice (20 days after treatment)
[23] = 100 g ai/ha, Rice (10 days after treatment)
[24] = 100 g ai/ha, Rice (20 days after treatment)
[25] = 50 g ai/ha, Wheat (10 days after treatment)
[26] = 50 g ai/ha, Wheat (20 days after treatment)
[27] = 100 g ai/ha, Wheat (10 days after treatment)
[28] = 100 g ai/ha, Wheat (20 days after treatment)
[29] = 50 g ai/ha, Cotton (10 days after treatment)
[30] = 50 g ai/ha, Cotton (20 days after treatment)
[31] = 100 g ai/ha, Cotton (10 days after treatment)
[32] = 100 g ai/ha, Cotton (20 days after treatment)
[33] = 50 g ai/ha, Soybean (10 days after treatment)

CCOC(=O)OC(C)N(C(=O)c1ccc(C(F)(F)F)nc1COCc1nnn(C)n1)c1nnnn1C (stereo not drawn) [Compound No. 4-8, ethyl(1-(N-(1-methyl-1H-tetrazol-5-yl)-2-(((2-methyl-2H-tetrazol-5-yl)methoxy)methyl)-6-(trifluoromethyl)nicotinamido)ethyl)carbonate]
Foliar treatment herbicidal activity, Crabgrass [1]: 98 | Foliar treatment herbicidal activity, Bindweed [2]: 100 | Soil treatment herbicidal activity, Cocklebur [3]: 0 | Soil treatment herbicidal activity, Sorghum [4]: 70 | Foliar treatment herbicidal activity, Sorghum [5]: 70 | Foliar treatment herbicidal activity, quack grass [6]: 0 | Soil treatment herbicidal activity, Crabgrass [7]: 100 | Soil treatment herbicidal activity, Fall panicum [8]: 0 | Soil treatment herbicidal activity, Indian jointvetch [9]: 100

Cn1nnc(CSCc2nc(C(F)(F)F)ccc2C(=O)Nc2nnnn2C)n1 [Compound No. 2-102, N-(1-methyl-1H-tetrazol-5-yl)-2-((((2-methyl-2H-tetrazol-5-yl)methyl)thio)methyl)-6-(trifluoromethyl)nicotinamide]
Foliar treatment herbicidal activity, Crabgrass [1]: 100 | Foliar treatment herbicidal activity, Bindweed [2]: 100 | plant injury at 50 g/ha [4]: 20% | plant injury at 50 g/ha [5]: 70% | Foliar treatment herbicidal activity, quack grass [6]: 0 | Soil treatment herbicidal activity, Crabgrass [7]: 100 | Soil treatment herbicidal activity, Fall panicum [8]: 100

Cn1nnc(CS(=O)(=O)Cc2nc(C(F)(F)F)ccc2C(=O)Nc2nnnn2C)n1 [Compound No. 2-105, N-(1-methyl-1H-tetrazol-5-yl)-2-((((2-methyl-2H-tetrazol-5-yl)methyl)sulfonyl)methyl)-6-(trifluoromethyl)nicotinamide]
pest or weed control at 50 g/ha [1]: 30% | pest or weed control at 50 g/ha [2]: 80% | pest or weed control at 50 g/ha ([3]; Xanthium strumarium): 98% | Soil treatment herbicidal activity, Sorghum [4]: 0 | plant injury at 50 g/ha [5]: 20% | Foliar treatment herbicidal activity, quack grass [6]: 0 | Soil treatment herbicidal activity, Crabgrass [7]: 0 | Soil treatment herbicidal activity, Fall panicum [8]: 0 | pest or weed control at 50 g/ha [9]: 90%

CCOC(=O)OC(C)n1nnn(C)c1=NC(=O)c1ccc(C(F)(F)F)nc1CSCc1nnn(C)n1 (stereo not drawn) [Compound No. 4-10, ethyl (1-(4-methyl-5-((2-((((2-methyl-2H-tetrazol-5-yl)methyl)thio)methyl)-6-(trifluoromethyl)nicotinoyl)imino)-4,5-dihydro-1H-tetrazol-1-yl)ethyl)carbonate]
Foliar treatment herbicidal activity, Crabgrass [1]: 100 | Foliar treatment herbicidal activity, Bindweed [2]: 100 | Soil treatment phytotoxicity, Soybean [10, 15]: 1 | Soil treatment phytotoxicity, Soybean [10, 16]: 3 | Soil treatment phytotoxicity, Corn [11, 17]: 0 | Soil treatment phytotoxicity, Corn [11, 18]: 0 | Soil treatment phytotoxicity, Corn [11, 19]: 0 | Soil treatment phytotoxicity, Corn [11, 20]: 0 | Soil treatment phytotoxicity, Rice [12, 21]: 0 | Soil treatment phytotoxicity, Rice [12, 22]: 0 | Soil treatment phytotoxicity, Rice [12, 23]: 0 | Soil treatment phytotoxicity, Rice [12, 24]: 0 | Soil treatment phytotoxicity, Wheat [13, 25]: 0 | Soil treatment phytotoxicity, Wheat [13, 26]: 0 | Soil treatment phytotoxicity, Wheat [13, 27]: 0 | Soil treatment phytotoxicity, Wheat [13, 28]: 0 | Soil treatment phytotoxicity, Cotton [14, 29]: 0 | Soil treatment phytotoxicity, Cotton [14, 30]: 1 | Soil treatment phytotoxicity, Cotton [14, 31]: 0 | Soil treatment phytotoxicity, Cotton [14, 32]: 2 | Soil treatment herbicidal activity, Sorghum [4]: 40 | Foliar treatment herbicidal activity, Sorghum [5]: 100 | Foliar treatment herbicidal activity, quack grass [6]: 0 | Soil treatment herbicidal activity, Crabgrass [7]: 100 | Soil treatment herbicidal activity, Fall panicum [8]: 40 | Soil treatment herbicidal activity, Indian jointvetch [9]: 95BI

COC(=O)OC(C)N(C(=O)c1ccc(C(F)(F)F)nc1COCc1nnn(C)n1)c1nnnn1C (stereo not drawn) [Compound No. 4-4, methyl(1-(N-(1-methyl-1H-tetrazol-5-yl)-2-(((2-methyl-2H-tetrazol-5-yl)methoxy)methyl)-6-(trifluoromethyl)nicotinamido)ethyl)carbonate]
Foliar treatment herbicidal activity, Crabgrass [1]: 98 | Foliar treatment herbicidal activity, Bindweed [2]: 100 | Soil treatment herbicidal activity, Cocklebur [3]: 0 | Soil treatment herbicidal activity, Sorghum [4]: 0 | Foliar treatment herbicidal activity, Sorghum [5]: 100 | Foliar treatment herbicidal activity, quack grass [6]: 0 | Soil treatment herbicidal activity, Crabgrass [7]: 0

COc1nc(COCc2nc(C(F)(F)F)ccc2C(=O)Nc2nnnn2C)nn1C [Compound No. 2-129, 2-(((5-methoxy-1-methyl-1H-1,2,4-triazol-3-yl)methoxy)methyl)-N-(1-methyl-1H-tetrazol-5-yl)-6-(trifluoromethyl)nicotinamide]
pest or weed control at 50 g/ha [1]: 70% | pest or weed control at 50 g/ha [2]: 40% | Soil treatment phytotoxicity, Soybean [10, 33]: 0 | Soil treatment phytotoxicity, Soybean [10, 15]: 0 | Soil treatment phytotoxicity, Corn [11, 17]: 0 | Soil treatment phytotoxicity, Corn [11, 18]: 0 | Soil treatment phytotoxicity, Corn [11, 19]: 0 | Soil treatment phytotoxicity, Corn [11, 20]: 0 | Soil treatment phytotoxicity, Rice [12, 21]: 5 | Soil treatment phytotoxicity, Rice [12, 22]: 6 | Soil treatment phytotoxicity, Rice [12, 23]: 5 | Soil treatment phytotoxicity, Rice [12, 24]: 7 | Soil treatment phytotoxicity, Wheat [13, 25]: 0 | Soil treatment phytotoxicity, Wheat [13, 26]: 0 | Soil treatment phytotoxicity, Wheat [13, 27]: 0 | Soil treatment phytotoxicity, Wheat [13, 28]: 0 | Soil treatment phytotoxicity, Cotton [14, 29]: 0 | Soil treatment phytotoxicity, Cotton [14, 30]: 0 | Soil treatment phytotoxicity, Cotton [14, 31]: 1 | Soil treatment phytotoxicity, Cotton [14, 32]: 5 | Soil treatment herbicidal activity, Sorghum [4]: 0 | plant injury at 50 g/ha [5]: 40% | Foliar treatment herbicidal activity, quack grass [6]: 0 | Soil treatment herbicidal activity, Crabgrass [7]: 0 | Soil treatment herbicidal activity, Fall panicum [8]: 0 | Soil treatment herbicidal activity, Indian jointvetch [9]: 0

Cn1nnnc1NC(=O)c1ccc(C(F)(F)F)nc1OCc1nnnn1C(F)F [Compound No. 1-26, 2-((1-(difluoromethyl)-1H-tetrazol-5-yl)methoxy)-N-(1-methyl-1H-tetrazol-5-yl)-6-(trifluoromethyl)nicotinamide]
pest or weed control at 50 g/ha [1]: 98% | pest or weed control at 50 g/ha [2]: 60% | Soil treatment herbicidal activity, Cocklebur [3]: 0 | Soil treatment phytotoxicity, Soybean [10, 33]: 0 | Soil treatment phytotoxicity, Soybean ([10]; 100 g ai/ha, Soybean (10 days after treatment)): 0 | Soil treatment phytotoxicity, Soybean [10, 16]: 4 | Soil treatment phytotoxicity, Corn [11, 17]: 0 | Soil treatment phytotoxicity, Corn [11, 18]: 0 | Soil treatment phytotoxicity, Corn [11, 19]: 1 | Soil treatment phytotoxicity, Corn [11, 20]: 1 | Soil treatment phytotoxicity, Rice [12, 21]: 1 | Soil treatment phytotoxicity, Rice [12, 22]: 8 | Soil treatment phytotoxicity, Rice [12, 23]: 3 | Soil treatment phytotoxicity, Rice [12, 24]: 9 | Soil treatment phytotoxicity, Wheat [13, 25]: 0 | Soil treatment phytotoxicity, Wheat [13, 26]: 0 | Soil treatment phytotoxicity, Wheat [13, 27]: 0 | Soil treatment phytotoxicity, Wheat [13, 28]: 0 | Soil treatment phytotoxicity, Cotton [14, 29]: 1 | Soil treatment phytotoxicity, Cotton [14, 30]: 0 | Soil treatment phytotoxicity, Cotton [14, 31]: 1 | Soil treatment phytotoxicity, Cotton [14, 32]: 1 | plant injury at 50 g/ha [4]: 30% | plant injury at 50 g/ha [5]: 70% | Foliar treatment herbicidal activity, quack grass [6]: 0 | pest or weed control at 50 g/ha ([8]; Panicum dichotomiflorum): 60% | pest or weed control at 50 g/ha [9]: 70%
